Results on 1 compound are retold here after patent US9427446B2, “Stable injectable composition containing diclofenac and thiocolchicoside” (EPIFARMA S.R.L., priority 2012, dated 2016).

This data set is described as follows: Suitability of BHT as antioxidant for a solution of diclofenac and thiocolchicoside (solubility/precipitation on storage). The format is physicochemical. Conditions: ordinary storage conditions.

With `Cc1cc(C(C)(C)C)c(O)c(C(C)(C)C)c1` [BHT, 2,6-bis(1,1-dimethylethyl)-4-methylphenol], the “Solubility / precipitation as antioxidant in a solution of diclofenac and thiocolchicoside” value is “poor solubility and precipitation”.
